According to patent US12692287B2, “Polymorphic form of reduced B-nicotinamide mononucleotide calcium salt, and preparation method and use therefor” (EffePharm (Shanghai) Co., Ltd., priority 2023, dated 2026):
Read-outs that look alike come from different tables or passages of the source.

Legend:
[1] = Stability: solids placed openly in a stability test chamber at 25° C. and 65% RH, purity by HPLC; type: physicochemical; conditions: calcium salt
Excerpt: NMNH is the reduced form of NMN, sensitive to air, easily oxidized, and unstable, making it unsuitable for long-term storage and market promotion. WO2023160405 (A1) reported the NMNH disodium salt compound and its crystalline and amorphous forms. […] Such stability fails to meet the shelf-life requirements for commercial products, hindering market promotion. The solid forms of NMNH calcium salt crystalline form A, crystalline form B, crystalline form C, crystalline form D, and crystalline form E were placed openly in a stability test chamber at 25° C. and 65% RH to evaluate their stability and hygroscopicity.

[2] = Hygroscopicity: solids placed openly at 25° C. and 65% RH, water content by KF; type: physicochemical
Procedure: The solid forms of NMNH calcium salt crystalline form A, crystalline form B, crystalline form C, crystalline form D, and crystalline form E were placed openly in a stability test chamber at 25° C. and 65% RH to evaluate their stability and hygroscopicity.

[3] = cited from earlier work; for Purity (HPLC, area %) / Appearance of the solid: 25° C., 65% RH, data of WO2023160405 (A1); for Purity: 25° C. and 65% RH / air, WO2023160405 (A1)
[4] = WO2023160405 (A1); cited from earlier work

SMILES	Purity (HPLC, area %) ([1]; 0 day) [area %]	Purity (HPLC, area %) ([1]; 5 days) [area %]	Purity (HPLC, area %) ([1]; 60 days) [area %]	Water content of NMNH calcium salt crystalline form (KF) ([2]; 0 day) [%]	Water content of NMNH calcium salt crystalline form (KF) ([2]; 5 days) [%]	Water content of NMNH calcium salt crystalline form (KF) ([2]; 60 days) [%]	further results
NC(=O)C1=CN([C@@H]2O[C@H](COP(=O)(O)O)[C@@H](O)[C@H]2O)C=CC1.[Ca+2] [NMNH calcium salt Crystalline Form B, reduced β-nicotinamide mononucleotide calcium salt]	99.75	99.75	99.75	13.3	13.2	12.9	
NC(=O)C1=CN([C@@H]2O[C@H](COP(=O)(O)O)[C@@H](O)[C@H]2O)C=CC1.[Ca+2] [NMNH calcium salt Crystalline Form A, reduced β-nicotinamide mononucleotide calcium salt]	99.83	99.82	99.82	9.2	9.2	9.0	
NC(=O)C1=CN([C@@H]2O[C@H](COP(=O)(O)O)[C@@H](O)[C@H]2O)C=CC1.[Ca+2] [NMNH calcium salt Crystalline Form C, reduced β-nicotinamide mononucleotide calcium salt]	99.78	99.78	99.79	9.5	9.5	9.3	
NC(=O)C1=CN([C@@H]2O[C@H](COP(=O)(O)O)[C@@H](O)[C@H]2O)C=CC1.[Ca+2] [NMNH calcium salt Crystalline Form E, reduced β-nicotinamide mononucleotide calcium salt]	99.60	99.60	99.59	20.3	20.3	20.0	
NC(=O)C1=CN([C@@H]2O[C@H](COP(=O)([O-])[O-])[C@@H](O)[C@H]2O)C=CC1.[Na+].[Na+] [NMNH disodium salt Crystalline Form A, NMNH disodium salt]							Purity (HPLC, area %) ([3]; 0 day, disodium salt): 99.33 area %; Purity (HPLC, area %) ([3]; 1 day, disodium salt): 99.27 area %; Purity (HPLC, area %) ([3]; 5 days): 99.01 area %; Purity ([3]; after 5 days): 99.01%; Purity ([3]; text, initial value before exposure, listed as NMNH disodium salt crystalline Form A, disodium salt): 99.33%; Purity ([3]; text, initial value before exposure, listed as NMNH disodium salt crystalline form A, disodium salt): 99.33%
NC(=O)C1=CN([C@@H]2O[C@H](COP(=O)([O-])[O-])[C@@H](O)[C@H]2O)C=CC1.[Na+].[Na+] [NMNH disodium salt crystalline form B, NMNH disodium salt]							Behaviour of the crystalline form when stored in the air [4]: absorb water and transform into crystalline form A
NC(=O)C1=CN([C@@H]2O[C@H](COP(=O)(O)O)[C@@H](O)[C@H]2O)C=CC1.[Ca+2] [NMNH calcium salt Crystalline Form D, reduced β-nicotinamide mononucleotide calcium salt]	99.64	99.64	99.64	18.4	18.4	18.3	
NC(=O)C1=CN([C@@H]2O[C@H](COP(=O)([O-])[O-])[C@@H](O)[C@H]2O)C=CC1.[Na+].[Na+] [NMNH disodium salt Amorphous Form, NMNH disodium salt]							Appearance of the solid ([3]; 0 day, disodium salt): (powder); Purity (HPLC, area %) ([3]; 0 day, disodium salt): 99.30 area %; Appearance of the solid ([3]; 0 day, listed as amorphous solid of NMNH disodium salt, disodium salt): powder; Purity (HPLC, area %) ([3]; 1 day, disodium salt): 99.02 area %; Appearance of the solid ([3]; after 1 day, disodium salt): (oil); Appearance of the solid ([3]; after 1 day, listed as NMNH disodium salt amorphous powder, disodium salt): oil; Appearance of the solid ([3]; after 1 day, listed as amorphous solid of NMNH disodium salt, disodium salt): oil; Purity ([3]; after 1 day): 99.02%; Purity ([3]; initial value before exposure, listed as NMNH disodium salt amorphous powder, disodium salt): 99.30%; Purity ([3]; initial value before exposure, listed as amorphous solid of NMNH disodium salt, disodium salt): 99.30%
